Results: patent US20190352691A1, “PATHOGEN DETECTION” (priority 2013, published 2019)

Experiments:
A. baumannii ATCC 17691 = settings: cited from earlier work
Mtb = test: anti-tuberculosis activity (whole cell); format: cell-based, Mycobacterium tuberculosis

Compound	activity against Acinetobacter baumannii (A. baumannii ATCC 17691)	activity against tuberculosis (Mtb)
N[C@@H](C(=O)N[C@@H]1C(=O)N2C(C(=O)O)=C(Cl)CC[C@H]12)c1ccccc1 [Lorabid]	not active	–
C[C@@H]1CC[C@H]2[C@@H](C)C(=O)O[C@@H]3O[C@@]4(C)CC[C@@H]1[C@]32OO4 [artemisinin]	–	not active
